This passage reports Ki results from US10533010B2, “Substituted indole Mcl-1 inhibitors” (Vanderbilt University, priority 2014, dated 2020).

In this test the target is recombinant Mcl-1 (residues 172-327) (Homo sapiens (Human), UniProt Q07820). Nature of the test: Fluorescence polarization anisotropy competition assay (FITC-Bak or FITC-Bim BH3 peptide) with Mcl-1. Type of test: binding.
[1] abbreviates: Table 2, Ki bins given in nM, FITC-Bak or FITC-Bim peptide competition, Ki converted from IC50, read-out: Ki for Inhibition of Mcl-1.
Setting [2] is: Table 2, Ki bins given in μM, FITC-Bak or FITC-Bim peptide competition, Ki converted from IC50, read-out: Ki for Inhibition of Mcl-1.

Where two headings read alike, the source gives them in different places.

Sequence of recombinant Mcl-1 (residues 172-327) (Q07820 172-327): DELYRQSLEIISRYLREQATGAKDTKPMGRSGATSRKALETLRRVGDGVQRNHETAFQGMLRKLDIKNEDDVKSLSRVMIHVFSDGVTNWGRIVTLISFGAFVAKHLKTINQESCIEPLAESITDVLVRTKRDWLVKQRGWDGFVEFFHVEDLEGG

As to `Cc1ccc(C(=O)O)cc1N1CCCn2c(c(CCCOc3cc(C)c(Cl)c(C)c3)c3ccc(Cl)c(-c4c(C)nn(C)c4C)c32)C1=O` [I-100, 3-(8-chloro-11-(3-(4-chloro-3,5-dimethylphenoxy)propyl)-1-oxo-7-(1,3,5-trimethyl-1H-pyrazol-4-yl)-4,5-dihydro-1H-[1,4]diazepino[1,2-a]indol-2(3H)-yl)-4-methylbenzoic acid], the Ki under setting [1] was less than 50 nM. As for `COC(=O)[C@H](Cc1ccccc1)NC(=O)CNC(=O)c1[nH]c2c(-c3c(C)nn(C)c3C)cccc2c1CCCOc1cc(C)c(Cl)c(C)c1` [I-288, methyl (3-(3-(4-chloro-3,5-dimethylphenoxy)propyl)-7-(1,3,5-trimethyl-1H-pyrazol-4-yl)-1H-indole-2-carbonyl)glycyl-L-phenylalaninate], the Ki under setting [2] was in the range of 1000 to 9990 nM. For the molecule `Cc1cc(OCCCc2c3n(c4c(-c5c(C)nn(C)c5C)c(Cl)ccc24)[C@@H](C)CN(c2ccc(C(=O)O)cc2)C3=O)cc(C)c1Cl` [I-166, (S)-4-(7-chloro-10-(3-(4-chloro-3,5-dimethylphenoxy)propyl)-4-methyl-1-oxo-6-(1,3,5-trimethyl-1H-pyrazol-4-yl)-3,4-dihydropyrazino[1,2-a]indol-2(1H)-yl)benzoic acid], the Ki under setting [1] is less than 50 nM.

For the molecule `Cc1cc(OCCCc2c(C(=O)NCc3cc(C(=O)O)cc(NCCC(C)C)n3)[nH]c3c(-c4c(C)nn(C)c4C)c(Cl)ccc23)cc(C)c1Cl` [I-283, 2-((6-chloro-3-(3-(4-chloro-3,5-dimethylphenoxy)propyl)-7-(1,3,5-trimethyl-1H-pyrazol-4-yl)-1H-indole-2-carboxamido)methyl)-6-(isopentylamino)isonicotinic acid], under setting [1], the Ki is less than 50 nM. Regarding `Cc1cc(OCCCc2c3n(c4c(-c5c(C)nn(C)c5C)cc(Cl)cc24)CCCN(c2cc(C(=O)O)c4ccn(C)c4c2)C3=O)cc(C)c1Cl` [I-244, 6-(9-chloro-11-(3-(4-chloro-3,5-dimethylphenoxy)propyl)-1-oxo-7-(1,3,5-trimethyl-1H-pyrazol-4-yl)-4,5-dihydro-1H-[1,4]diazepino[1,2-a]indol-2(3H)-yl)-1-methyl-1H-indole-4-carboxylic acid], the Ki fell in the range of 101 to 299 nM. As to `Cc1cc(OCCCc2c(C(=O)NCCC(=O)NS(=O)(=O)c3ccc([N+](=O)[O-])cc3)[nH]c3ccccc23)cc(C)c1Cl` [I-22, 3-(3-(4-chloro-3,5-dimethylphenoxy)propyl)-N-(3-((4-nitrophenyl)sulfonamido)-3-oxopropyl)-1H-indole-2-carboxamide], the Ki under setting [1] fell in the range of 101 to 299 nM.

Regarding `Cc1cc(OCCCc2c(C(=O)NCc3ccc(C(=O)NS(C)(=O)=O)o3)[nH]c3ccccc23)cc(C)c1Cl` [I-59, 3-(3-(4-chloro-3,5-dimethylphenoxy)propyl)-N-((5-((methylsulfonyl)carbamoyl)furan-2-yl)methyl)-1H-indole-2-carboxamide], the Ki under setting [1] was in the range of 101 to 299 nM. As to `Cc1cc(OCCCc2c(C(=O)N3CCC(NC(=O)OC(C)(C)C)CC3)[nH]c3ccccc23)cc(C)c1Cl` [I-48, tert-butyl (1-(3-(3-(4-chloro-3,5-dimethylphenoxy)propyl)-1H-indole-2-carbonyl)piperidin-4-yl)carbamate], the Ki under setting [2] was 1000 to 9990 nM. In the case of `Cc1ccncc1-c1cc(C(=O)O)cc(N2CCCn3c(c(CCCOc4cc(C)c(Cl)c(C)c4)c4ccc(Cl)c(-c5c(C)nn(C)c5C)c43)C2=O)c1` [I-234, 3-(8-chloro-11-(3-(4-chloro-3,5-dimethylphenoxy)propyl)-1-oxo-7-(1,3,5-trimethyl-1H-pyrazol-4-yl)-4,5-dihydro-1H-[1,4]diazepino[1,2-a]indol-2(3H)-yl)-5-(4-methylpyridin-3-yl)benzoic acid], the Ki under setting [1] was less than 50 nM.

For the molecule `Cc1cc(OCCCc2c3n(c4c(-c5c(C)nn(C)c5C)c(Cl)ccc24)CCCN(c2cc(C(=O)O)c4c(ccn4C)c2)C3=O)cc(C)c1Cl` [I-250, 5-(8-chloro-11-(3-(4-chloro-3,5-dimethylphenoxy)propyl)-1-oxo-7-(1,3,5-trimethyl-1H-pyrazol-4-yl)-4,5-dihydro-1H-[1,4]diazepino[1,2-a]indol-2(3H)-yl)-1-methyl-1H-indole-7-carboxylic acid], the Ki under setting [1] was less than 50 nM. The same measure, in the same setting: next, `Cc1cc(OCCCc2c3n(c4c(-c5c(C)nn(C)c5C)c(Cl)ccc24)CCCN(c2ccc(C(=O)O)c(C(F)(F)F)c2)C3=O)cc(C)c1Cl` [I-93, 4-(8-chloro-11-(3-(4-chloro-3,5-dimethylphenoxy)propyl)-1-oxo-7-(1,3,5-trimethyl-1H-pyrazol-4-yl)-4,5-dihydro-1H-[1,4]diazepino[1,2-a]indol-2(3H)-yl)-2-(trifluoromethyl)benzoic acid]: less than 50 nM. As to `Cc1cc(OCCCc2c(C(=O)NCc3cc(C(=O)NCc4ccccc4)c(C)o3)[nH]c3c(-c4c(C)nn(C)c4C)cccc23)cc(C)c1Cl` [I-275, N-((4-(benzylcarbamoyl)-5-methylfuran-2-yl)methyl)-3-(3-(4-chloro-3,5-dimethylphenoxy)propyl)-7-(1,3,5-trimethyl-1H-pyrazol-4-yl)-1H-indole-2-carboxamide], the inhibitory constant (Ki) under setting [2] lay in the range of 1000 to 9990 nM.

Consider `Cc1cc(OCCCc2c3n(c4c(-c5c(C)nn(C)c5C)c(Cl)ccc24)C(C)CCNC3=O)cc(C)c1Cl` (centres unmarked) [I-116, 8-chloro-1-(3-(4-chloro-3,5-dimethylphenoxy)propyl)-5-methyl-7-(1,3,5-trimethyl-1H-pyrazol-4-yl)-2,3,4,5-tetrahydro-1H-[1,4]diazepino[1,2-a]indol-1-one], for which the Ki under setting [1] is less than 50 nM. Take `Cc1cc(OCCCc2c(C(=O)NCc3cccc(C(=O)NS(=O)(=O)c4cccc(C#N)c4)c3)[nH]c3c(-c4c(C)nn(C)c4C)cccc23)cc(C)c1Cl` [I-30, 3-(3-(4-chloro-3,5-dimethylphenoxy)propyl)-N-(3-(((3-cyanophenyl)sulfonyl)carbamoyl)benzyl)-7-(1,3,5-trimethyl-1H-pyrazol-4-yl)-1H-indole-2-carboxamide]: the Ki under setting [1] is less than 50 nM. On the same count and under the same terms, next, `Cc1cc(OCCCc2c3n(c4c(-c5c(C)nn(C)c5C)cccc24)CCCN(Cc2cc(C(=O)O)cc([N+](=O)[O-])c2)C3=O)cc(C)c1Cl` [I-86, 3-((11-(3-(4-chloro-3,5-dimethylphenoxy)propyl)-1-oxo-7-(1,3,5-trimethyl-1H-pyrazol-4-yl)-4,5-dihydro-1H-[1,4]diazepino[1,2-a]indol-2(3H)-yl)methyl)-5-nitrobenzoic acid]: less than 50 nM; `Cc1cc(OCCCc2c3n(c4c(-c5c(C)nn(C)c5C)c(Cl)ccc24)C[C@@H](C)N(c2cc(C(=O)O)cc4c2ccn4C)C3=O)cc(C)c1Cl` [I-159, (R)-4-(7-chloro-10-(3-(4-chloro-3,5-dimethylphenoxy)propyl)-3-methyl-1-oxo-6-(1,3,5-trimethyl-1H-pyrazol-4-yl)-3,4-dihydropyrazino[1,2-a]indol-2(1H)-yl)-1-methyl-1H-indole-6-carboxylic acid]: less than 50 nM; `Cc1cc(OCCCc2c3n(c4c(-c5c(C)nn(C)c5C)c(Cl)ccc24)CCCN(Cc2cc(C(=O)O)cc(OCCCC(C)C)n2)C3=O)cc(C)c1Cl` [I-303, 2-((8-chloro-11-(3-(4-chloro-3,5-dimethylphenoxy)propyl)-1-oxo-7-(1,3,5-trimethyl-1H-pyrazol-4-yl)-4,5-dihydro-1H-[1,4]diazepino[1,2-a]indol-2(3H)-yl)methyl)-6-((4-methylpentyl)oxy)isonicotinic acid]: less than 50 nM.

As a reminder, the Ki is a measure of affinity in units of concentration, obtained from inhibition or displacement.
